Results reported in patent US10028934B2, “Substituted indazole derivatives active as kinase inhibitiors” (NERVIANO MEDICAL SCIENCES S.R.L., priority 2011, dated 2018).
Where a name gives a salt, the structure may show the parent alone.

Assays:
[1] = test system: MV-4-11 cells; experiment: In vitro cell proliferation assay, MV-4-11 (CellTiter-Glo); assay type: cell-based; conditions: MV4-11; human acute leukemia cells bearing FLT3-ITD mutation, 72 h
Experimental: (§1) The human acute leukemia MOLM-13 AND MV-4-11 cells, bearing a FLT3-ITD mutation, were seeded (5000 cells/well) in white 384 well-plates in complete medium (RPMI 1640 plus 10% Fetal bovine serum) and treated with compounds dissolved in 0.1% DMSO, 24 h after seeding. The cells were incubated at 37° C. and 5% CO2 and after 72 h the plates were processed using CellTiter-Glo assay (Promega) following the manufacturer's instruction.
(§2) CellTiter-Glo is a homogenous method based on the quantification of the ATP present, an indicator of metabolitically active cells. ATP was quantified using a system based on luciferase and D-luciferin resultant into light generation. The luminescent signal was proportional to the number of cells present in culture. Briefly, 25 microL/well reagent solution were added to each well and, after 5 minutes shaking, microplates were read by Envision (PerkinElmer) luminometer. Inhibitory activity was evaluated comparing treated versus control data using Symyx Assay Explorer (Symyx Technologies Inc.) program. IC50 was calculated using sigmoidal interpolation curve.

[2] = test system: MOLM-13 cells; experiment: In vitro cell proliferation assay, MOLM-13 (CellTiter-Glo); assay type: cell-based; conditions: human acute leukemia cells bearing FLT3-ITD mutation, 72 h
Experimental: as §1, §2

[3] = biological target: KIT kinase (GST-KIT cytoplasmic domain) (Homo sapiens (Human), UniProt P10721); experiment: Biochemical assay for inhibitors of KIT kinase activity; conditions: pre activated enzyme 4 nM, 4.4 microM ATP, 60 minutes at r.t.
Experimental: The GST-KIT cytoplasmic domain has been expressed in Sf21 cells infected for 66 hrs at 27° C. The recombinant protein has been purified by affinity on GSH-sepharose and eluted with glutathione. […] At the end of the phosphorylation reaction, the not reacted ATP, cold and radioactive, was captured by an excess of dowex ion exchange resin that eventually settled by gravity to the bottom of the reaction plate. […] 500 g of wet resin (SIGMA, custom prepared resin DOWEX 1×8 200-400 mesh, 2.5 Kg) were weighed out and diluted to 2 L in 150 mM sodium formate, pH 3.00. The resin was allowed to settle down overnight and then the supernatant was discarded. After three washes as above over a couple of days, the resin was allowed to settle and two volumes (with respect to the resin volume) were added of 150 mM sodium formate buffer. […] NO: 2). The peptide was purchased from American Peptide Company (Sunnyvale, Calif.). […] An automated station for serial dilutions (Biomek FX, Beckman) was used for producing 1:3 dilutions in 100% DMSO, from line A1 to A10, and for all the compounds in the column. […] The following dispensation into the plates plus 3 cycles of mixing, done by the robot itself, started the kinase reaction. At this point, the correct concentrations were restored for all the reagents. […]

Sequence of KIT kinase (GST-KIT cytoplasmic domain) (P10721 544-976): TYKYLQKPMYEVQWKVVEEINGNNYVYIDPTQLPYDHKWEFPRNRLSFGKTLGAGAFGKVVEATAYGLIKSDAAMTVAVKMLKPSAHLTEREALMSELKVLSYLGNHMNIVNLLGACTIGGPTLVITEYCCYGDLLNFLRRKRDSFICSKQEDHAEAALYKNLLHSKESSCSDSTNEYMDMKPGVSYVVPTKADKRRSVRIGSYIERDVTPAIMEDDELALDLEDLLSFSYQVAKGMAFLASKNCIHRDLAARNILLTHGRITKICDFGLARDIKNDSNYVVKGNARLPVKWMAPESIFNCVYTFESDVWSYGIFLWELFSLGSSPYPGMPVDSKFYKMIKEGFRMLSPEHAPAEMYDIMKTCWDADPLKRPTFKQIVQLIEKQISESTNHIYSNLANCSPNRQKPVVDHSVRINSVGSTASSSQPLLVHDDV

SMILES | IC50 [1] [nM] | IC50 [2] [nM] | IC50 [3] [nM]
CN1CCN(c2ccc(C(=O)Nc3n[nH]c4cc(Oc5cccc(OCc6ccccc6)c5)ccc34)cc2)CC1 [Cpd. 9, N-[6-(3-Benzyloxy-phenoxy)-1H-indazol-3-yl]-4-(4-methyl-piperazin-1-yl)-benzamide] | 101 | 245 | 
CN1CCN(c2ccc(C(=O)Nc3n[nH]c4cc(OCCOc5ccccc5)ccc34)cc2)CC1 [Cpd. 10, 4-(4-Methyl-piperazin-1-yl)-N-[6-(2-phenoxy-ethoxy)-1H-indazol-3-yl]-benzamide] | 118 | 139 | 
CN(C)C1CCN(c2ccc(C(=O)Nc3n[nH]c4cc(OCCOCc5ccccc5)ccc34)cc2)CC1 [Cpd. 15, N-[6-(2-Benzyloxy-ethoxy)-1H-indazol-3-yl]-4-(4-dimethylamino-piperidin-1-yl)-benzamide] | < 50 | < 50 | 
CN(C)Cc1ccc(C(=O)Nc2n[nH]c3cc(OCCOCc4ccccc4)ccc23)cc1 [Cpd. 21, N-[6-(2-Benzyloxy-ethoxy)-1H-indazol-3-yl]-4-dimethylaminomethyl-benzamide] |  | 68 | 
CN1CCN(c2ccc(C(=O)Nc3n[nH]c4cc(Oc5ccc(Oc6ccccc6)cc5)ccc34)cc2)CC1 [Cpd. 8, 4-(4-Methyl-piperazin-1-yl)-N-[6-(4-phenoxy-phenoxy)-1H-indazol-3-yl]-benzamide] | 2750 | 1980 | 
C[N+]1([O-])CCN(c2ccc(C(=O)Nc3n[nH]c4cc(OCCOCc5ccccc5)ccc34)cc2)CC1 [Cpd. 14, N-[6-(2-Benzyloxy-ethoxy)-1H-indazol-3-yl]-4-(4-methyl-4-oxy-piperazin-1-yl)-benzamide] | < 50 | < 50 | 
CN1CCN(c2ccc(C(=O)Nc3n[nH]c4cc(OC5CCN(Cc6ccccc6)CC5)ccc34)cc2)CC1 [Cpd. 6, N-[6-(1-Benzyl-piperidin-4-yloxy)-1H-indazol-3-yl]-4-(4-methyl-piperazin-1-yl)-benzamide] | 163 | 673 | 
CN1CCN(c2ccc(C(=O)Nc3n[nH]c4cc(Oc5ccccc5)ccc34)cc2)CC1 [Cpd. 2, 4-(4-Methyl-piperazin-1-yl)-N-(6-phenoxy-1H-indazol-3-yl)-benzamide] | 1480 | 1160 | 
CN1CCN(c2ccc(C(=O)Nc3n[nH]c4cc(OCc5cccc(Oc6ccccc6)c5)ccc34)cc2)CC1 [Cpd. 5, 4-(4-Methyl-piperazin-1-yl)-N-[6-(3-phenoxy-benzyloxy)-1H-indazol-3-yl]-benzamide] | 513 | 557 | 
CN1CCN(c2ccc(C(=O)Nc3n[nH]c4cc(Oc5ccc(OCc6ccccc6)cc5)ccc34)cc2)CC1 [Cpd. 4, N-[6-(4-Benzyloxy-phenoxy)-1H-indazol-3-yl]-4-(4-methyl-piperazin-1-yl)-benzamide] | < 50 | 92 | 
CN1CCN(c2ccc(C(=O)Nc3n[nH]c4cc(OCCOCc5ccccc5)ccc34)cc2)CC1 [Cpd. 11, N-[6-(2-Benzyloxy-ethoxy)-1H-indazol-3-yl]-4-(4-methyl-piperazin-1-yl)-benzamide] | < 50 | < 50 | 
CN(C)CCN(C)c1ccc(C(=O)Nc2n[nH]c3cc(OCCOCc4ccccc4)ccc23)cc1 [Cpd. 16, N-[6-(2-Benzyloxy-ethoxy)-1H-indazol-3-yl]-4-[(2-dimethylamino-ethyl)-methyl-amino]-benzamide] | < 50 | < 50 | 
CN1CCN(c2ccc(C(=O)Nc3n[nH]c4cc(OCC#Cc5ccccc5)ccc34)cc2)CC1 [Cpd. 7, 4-(4-Methyl-piperazin-1-yl)-N-[6-(3-phenyl-prop-2-ynyloxy)-1H-indazol-3-yl]-benzamide] | 110 | 240 | 
CN1CCN(c2ccc(C(=O)Nc3n[nH]c4cc(Oc5cccc(F)c5)ccc34)cc2)CC1 [Cpd. 3, N-[6-(3-Fluoro-phenoxy)-1H-indazol-3-yl]-4-(4-methyl-piperazin-1-yl)-benzamide] | 987 | 990 | 
CN1CCN(c2ccc(C(=O)Nc3n[nH]c4cc(OCc5ccccc5)ccc34)cc2)CC1 [Cpd. 1, N-(6-Benzyloxy-1H-indazol-3-yl)-4-(4-methyl-piperazin-1-yl)-benzamide] | 683 | 789 | 

The next lines start with the values.

IC50 [1] [nM] | IC50 [2] [nM] | IC50 [3] [nM] | SMILES
< 50 | < 50 |  | CN1CCN(c2ccc(C(=O)Nc3n[nH]c4cc(OCCOCc5cccc(C(F)(F)F)c5)ccc34)cc2)CC1 [Cpd. 34, 4-(4-Methyl-piperazin-1-yl)-N-{6-[2-(3-trifluoromethyl-benzyloxy)-ethoxy]-1H-indazol-3-yl}-benzamide]
< 50 | < 50 |  | O=C(Nc1n[nH]c2cc(OCCOCc3ccccc3)ccc12)c1ccc(NCCN2CCOCC2)cc1 [Cpd. 25, N-[6-(2-Benzyloxy-ethoxy)-1H-indazol-3-yl]-4-(2-morpholin-4-yl-ethylamino)-benzamide hydrochloride]
< 50 | < 50 |  | CN1CCC(Nc2ccc(C(=O)Nc3n[nH]c4cc(OCCOCc5ccccc5)ccc34)cc2)CC1 [Cpd. 19, N-[6-(2-Benzyloxy-ethoxy)-1H-indazol-3-yl]-4-(1-methyl-piperidin-4-ylamino)-benzamide]
< 50 | < 50 |  | CN1CCN(c2ccc(C(=O)Nc3n[nH]c4cc(OCCOCc5ccccc5)ccc34)c(F)c2)CC1 [Cpd. 38, N-[6-(2-Benzyloxy-ethoxy)-1H-indazol-3-yl]-2-fluoro-4-(4-methyl-piperazin-1-yl)-benzamide]
< 50 | 87 |  | CN(C)CCCN(C)c1ccc(C(=O)Nc2n[nH]c3cc(OCCOCc4ccccc4)ccc23)cc1 [Cpd. 17, N-[6-(2-Benzyloxy-ethoxy)-1H-indazol-3-yl]-4-[(3-dimethylamino-propyl)-methyl-amino]-benzamide]
< 50 | < 50 | 50 | CN1CCN(c2ccc(C(=O)Nc3n[nH]c4cc(OCCOCc5ccc(F)cc5)ccc34)cc2)CC1 [Cpd. 32]
< 50 | < 50 |  | O=C(Nc1n[nH]c2cc(OCCOCc3ccccc3)ccc12)c1ccc(N2CC(N3CCCC3)C2)cc1 [Cpd. 28, N-[6-(2-Benzyloxy-ethoxy)-1H-indazol-3-yl]-4-(3-pyrrolidin-1-yl-azetidin-1-yl)-benzamide]
< 50 | < 50 | 50 | CN1CCN(c2ccc(C(=O)Nc3n[nH]c4cc(OCCOCc5ccc(C(F)(F)F)cc5)ccc34)cc2)CC1 [Cpd. 33, 4-(4-Methyl-piperazin-1-yl)-N-{6-[2-(4-trifluoromethyl-benzyloxy)-ethoxy]-1H-indazol-3-yl}-benzamide]
< 50 | < 50 |  | COc1ccc(COCCOc2ccc3c(NC(=O)c4ccc(N5CCN(C)CC5)cc4)n[nH]c3c2)cc1 [Cpd. 40, N-{6-[2-(4-Methoxy-benzyloxy)-ethoxy]-1H-indazol-3-yl}-4-(4-methyl-piperazin-1-yl)-benzamide]
< 50 | < 50 |  | CN1CCC(CNc2ccc(C(=O)Nc3n[nH]c4cc(OCCOCc5ccccc5)ccc34)cc2)CC1 [Cpd. 27, N-[6-(2-Benzyloxy-ethoxy)-1H-indazol-3-yl]-4-[(1-methyl-piperidin-4-ylmethyl)-amino]-benzamide]
50 | 81 |  | CN1CCN(c2ccc(C(=O)Nc3n[nH]c4cc(OC/C=C/c5ccccc5)ccc34)cc2)CC1 [Cpd. 39, 4-(4-Methyl-piperazin-1-yl)-N-[6-((E)-3-phenyl-allyloxy)-1H-indazol-3-yl]-benzamide]
118 | 240 |  | CN1CCN(c2ccc(C(=O)Nc3n[nH]c4cc(OCCOCc5ccccc5)ccc34)c(N3CCN(C)CC3)c2)CC1 [Cpd. 43, N-[6-(2-Benzyloxy-ethoxy)-1H-indazol-3-yl]-2,4-bis-(4-methyl-piperazin-1-yl)-benzamide]
< 50 | < 50 |  | CN1CCN(c2cccc(C(=O)Nc3n[nH]c4cc(OCCOCc5ccccc5)ccc34)c2)CC1 [Cpd. 29, N-[6-(2-Benzyloxy-ethoxy)-1H-indazol-3-yl]-3-(4-methyl-piperazin-1-yl)-benzamide hydrochloride]
< 50 | 65 |  | CN1CCC(Oc2ccc(C(=O)Nc3n[nH]c4cc(OCCOCc5ccccc5)ccc34)cc2)CC1 [Cpd. 22, N-[6-(2-Benzyloxy-ethoxy)-1H-indazol-3-yl]-4-(1-methyl-piperidin-4-yloxy)-benzamide]
